Laboratory results reported in patent publication US8524861B2, “Treatment of bacterial infections” (priority 2004, dated 2013).
“Also recorded” adds a separate entry of the source. Where no end group is shown, it is not given here.

What was measured:
[1] = tested on: Staphylococcus aureus (ATCC strain 6538P); type: cell-based; settings: ATCC strain 6538P
Procedure: (§1) Bacterial Stocks—ATCC derived stock bacteria were obtained from Oxoid Limited. Pseudomonas aeruginosa (ATCC strain 9027) or Staphylococcus aureus (ATCC strain 6538P) were obtained in ‘Cultiloop’ format. Stocks were prepared by inoculating 20 ml of LB broth with a single Cultiloop, and incubating overnight at 37° C. Cells present after overnight incubation were harvested by removing larger aggregates by centrifugation (3000 g, 10 minutes), and withdrawing 16 ml of the supernatant, which was likely to contain mainly planktonic bacteria. To this, 4 ml of sterile glycerol was added (the latter having been sterilised by autoclaving). The resultant suspension was divided between 15× 1 ml cryovials before freezing at −85° C.
(§2) Preliminary experiments were carried out to estimate the amount to dilute bacterial stocks which when on addition of 25 μl of diluted stock to 100 μl of fresh LB broth would result in bacteria in log phase growth after overnight incubation at 37° C.
(§3) The peptides were examined for antibacterial efficacy against Staphylococcus aureus. To test the efficacy of peptides, dilutions of test peptides or PBS (for use as a control) were prepared in LB broth, and 100 μl aliquots of these placed in 96-well plates. A vial of planktonic bacterial stock was thawed in a 37° C. incubator and diluted to the level previously determined which would produce log phase growth after overnight incubation (see above). 25 μl of this bacterial dilution was then added to the test wells (some wells containing LB broth without peptide were left without any bacterial inoculation, these being used as a blank). After overnight growth, the concentration of bacteria in individual wells was assessed by measuring absorbance at 620 nm, in a microplate spectrophotometer. The average absorbance of wells for specific concentrations of peptides was calculated, and from this the percentage inhibition (relative to untreated wells) was also calculated and plotted against concentration (along with an estimate of error on that % inhibition).
(§4) The inventor constructed an expanded library of peptides derived from either apolipoprotein B or apolipoprotein E in order to further evaluate polypeptides in accordance with the invention. Further experiments were then conducted to investigate the antibacterial activity of this peptide library against the bacteria P. aeroginosa, S. aureus and S. pneumoniae. The methods used to determine the IC50 values for each peptide were as described in the Example 1.

[2] = tested on: Pseudomonas aeruginosa (ATCC strain 9027); type: cell-based; settings: for IC50: ATCC strain 9027
Procedure: as §1, §2, §3
Peptides in accordance with the invention were also examined for antibacterial efficacy against Pseudomonas aeruginosa using the same technique as described above to calculate the IC50 values.
Points were obtained by dividing the average for six treated wells by the average for six untreated wells, and bars show an estimate of the error for these calculated values.
as §4

[3] = tested on: Staphylococcus aureus, Pseudomonas aeruginosa, and Streptococcus pneumoniae; experiment: Antibacterial activity, overall statements over the test bacteria; type: cell-based
Description: The inventors conducted exhaustive experiments to assess the antibacterial activity of peptides from apolipoproteins and derivatives thereof. Peptides and derivatives from ApoE and ApoB were a particular focus. […] Example 1 illustrates the efficacy of the polypeptides according to the invention compared to apoE141-149 and apoB3359-3367 (i.e. non-tandem repeats) and other peptides derived from apolipoproteins.
The activity of polypeptides in accordance with the invention can be seen in Tables 5, 6, 7 and 8.
as §3, §4

Streptococcus pneumoniae = type: cell-based
Procedure: as §3, with “inhibition). […] The inventor constructed an expanded library of peptides derived from either apolipoprotein B or apolipoprotein E in order to further evaluate polypeptides in accordance with the invention. Further experiments were then conducted to investigate the antibacterial activity of this peptide library against the bacteria P. aeroginosa, S. aureus and S. pneumoniae. The methods used to determine the IC50 values for each peptide were as described in the Example 1.” for “inhibition).”

bacteria = settings: Peptides, 21: 327-330 (2000); cited from earlier work
[4] = tested on: Saccharomyces cerevisiae yeast cells (strain GenT01); experiment: Gentronix GreenScreen GC yeast genotoxicity assay; type: cell-based; settings: concentrations up to and including 100 μM, FIGS. 6A-6C
Procedure: A liquid handling robot is used to produce a serial dilution series of each test compound in a 96-well, black microplate with an optically clear base. […] In addition, a series of genotoxic and cytotoxic standards and non-toxic controls are run to provide internal quality control. The plates are covered with a breathable membrane and incubated overnight, without shaking, at 25° C.
After incubation, the microplates are uncovered and data collected using a Tecan Ultra 384 microplate reader. This instrument provides measurements of light absorbance and fluorescence in microplates; a standard fluorescein filter set (excitation 485/25 and emission 535/25) is used. Absorbance is read at 620 nm and is proportional to cell proliferation (which is lowered by toxic analytes). Fluorescence is proportional to the activity of the DNA repair system (increased by genotoxic analytes). The yeast cultures used are a genetically modified strain that express a green fluorescent protein whenever the cells carry out DNA damage repair. Fluorescence is normalised to the absorbance signal to correct for variation in cell yield caused by any cytolytic activity of the test compounds against the yeast cells. This produces a “fluorescence per cell” measurement termed “brightness”. In addition to the Gentronix Assay yeast strain (GenT01), a control Saccharomyces cerevisiae strain (GenC01) is also used, which is identical except for its ability to produce green fluorescent protein is disabled. This strain is used to provide a control to allow correction for substances which may be either autofluorescent themselves or which induce an autofluorescence in the yeast cells. The data collected is simply transferred into a Excel template where result evaluation sheets are automatically produced. The sheets contain the processed results in both a graphical and tabulated format, with automatic assessment of the result, i.e. positive or negative, and calculation of the lowest effective concentration (LEC), for both genotoxicity and cytotoxicity. […]

Row | Substance | IC50 [1] [µM] | IC50 [2] [µM] | Antibacterial activity, in words, bacterium not specified [3] | IC50 (Streptococcus pneumoniae) [µM] | Antibacterial activity reported by Azuma et al., in words (bacteria) | Effectiveness against Pseudomonadales, in particular P. aeruginosa, in words ([2]; summary in description) | Genotoxic response in test yeast strain (GenT01) [4]
1 | RRWRKRWRKWRWRKRWRK-NH2 (C-terminus assumed) [MU_28] | 15 | 11.5 | particularly effective | 46 |  |  | 
2 | LRWRKRWRKWRWRKRWRK-NH2 (C-terminus assumed) [MU_30] | 15 | 15 | particularly effective | 38 |  |  | 
3 | HRWRKRWRKWRWRKRWRK-NH2 (C-terminus assumed) [MU_31] | 17 | 12 |  | 42 |  |  | 
4 | apoE134-159: Azuma's shorter apoE peptides, label printed for both a 22 and a 26 amino acid peptide (RVRLASHLRKLRKRLLRDADDLQKRL; UniProt P02649 152-177, looked up, fragment) |  |  |  |  | very low antibacterial activity; also recorded: greatly reduced antibacterial activity |  | 
5 | Ac-WRKWRKRWWLRKLRKRLL-NH2 [GIN 34] | 7 | 3 | particularly effective |  |  | particularly effective | failed to produce any genotoxic response
6 | RRWRKRWRKRRWRKRWRK-NH2 (C-terminus assumed) [MU_33] | 38 | > 53 |  | 53 |  |  | 
7 | Ac-WRWRKRWRKWRWRKRWRK-NH2 [MU_27] |  |  |  | 46 |  |  | failed to produce any genotoxic response
8 | HRWRKRWRKHRWRKRWRK-NH2 (C-terminus assumed) [MU_36] | 40 | > 53 |  | > 53 |  |  | 
9 | LRWRKRWRKLRWRKRWRK-NH2 (C-terminus assumed) [MU_35] | 31 | 23 |  | 53 |  |  | 
10 | apoE134-155: Azuma's shorter apoE peptide, stated as 18 amino acids in length (RVRLASHLRKLRKRLLRDADDL; UniProt P02649 152-173, looked up, fragment) |  |  |  |  | no activity at all |  | 
11 | LRVRLASHLRKLRKRLLRDADDLQKRLAVY [apoE133-162, 30-mer monomeric peptide of Azuma et al] |  |  |  |  | comparable with that of the antibiotic gentamicin |  | 
12 | LRKLRKRLL-NH2 (C-terminus assumed) [MU_46] |  | 22 |  | > 53 |  |  | 
13 | RWRKRWRKWRWRKRWRK-NH2 (C-terminus assumed) [MU_32] | 15 | 12 | particularly effective | 46 |  |  | 
14 | KRWRKRWRKWRWRKRWRK-NH2 (C-terminus assumed) [MU_29] | 23 | 7.5 |  | 52 |  |  | 
